Experimental data from patent US9233184B2, “Adhesive preparation” (HISAMITSU PHARMACEUTICAL CO., INC., priority 2006, dated 2016).
Like-named read-outs stand apart in the source and are kept apart here.

Columns and labels:
[1] = human, in vivo
Method: (§1) Blood was collected over time. […] Methyl salicylate and 1-menthol are contained in large amounts in daily necessities. Therefore, the use of such daily necessities was avoided before and during the application.
(§2) The plasma concentrations of the methyl salicylate, its metabolite salicylic acid, and the 1-menthol were separately measured. The measurement was performed by liquid chromatography-mass spectrometry for the salicylic acid and by gas chromatography-mass spectrometry for the methyl salicylate and the 1-menthol. Each of the measurement methods was validated beforehand to confirm measurement reliability. Values obtained by subtracting an endogenous concentration (measurement value on 0 hour) before the application from an actual measurement value were used as plasma concentrations during the application. The Cmax and AUC0-24 were calculated according to the standard methods.
A mean was an average value from the seven individuals to be tested. This measurement of the plasma concentrations was performed according to the guideline of FDA (U.S. Food and Drug Administration) (Guidance for Industry=Bioanalytical Method Validation).

clinical = details: human, in vivo; for Cmax: plasma Cmax
Method: as §1, §2
This measurement of the plasma concentrations was performed according to the guideline of FDA (U.S. Food and Drug Administration) (Guidance for Industry=Bioanalytical Method Validation).

[2] = cited from earlier work

time within which maximum plasma concentration (Cmax) is achieved [1] [h] | AUC(0-t) (clinical; plasma AUC0-24, Maximum value) [ng·h/mL] | AUC(0-t) (clinical; plasma AUC0-24, Mean ± S.D.) [ng·h/mL] | AUC(0-t) (clinical; plasma AUC0-24, Minimum value) [ng·h/mL] | Cmax (clinical; Maximum value) [ng/mL] | Cmax (clinical; Mean ± S.D.) [ng/mL] | Cmax (clinical; Minimum value) [ng/mL] | Compound | plasma concentration of methyl salicylate ([2]; eight pieces of adhesive preparation with 74.88 mg/piece of methyl salicylate applied to a human) | plasma concentration of methyl salicylate ([2]; two pieces of adhesive preparation with 74.88 mg/piece of methyl salicylate applied to a human)
≤ 12 | 24700 | 8850 | 3460 | 4100 | 1290 | 531 | O=C(O)c1ccccc1O [Salicylic acid] |  | 
≤ 6 | 139 | 30.1 | 3.7 | 109 | 21.1 | 2.5 | COC(=O)c1ccccc1O [Methyl salicylate] | approximately 30 ng/mL | hardly rose
≤ 8 |  | 80.6 |  |  |  |  | CC1CCC(C(C)C)C(O)C1 (stereo not drawn) [Example 1-menthol, 1-menthol] |  | 
